Test results reported in ChEMBL document CHEMBL1201862, “PubChem BioAssay data set” (2004).
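Five concentrations, 48 hours, 96-well plates. Abbreviation: GI50, concentration required for 50% inhibition of growth.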 Calls of active or inactive are those of the source. No stated cut-off is given here; in the data, active = GI50 up to about 1.1 µM and inactive = higher.

Legend:
Assay in all cases: growth of human tumour cells (NCI), 48 h
A549 = tested on: A549
786-0 = tested on: 786-0
BT-549 = tested on: BT-549
UACC-257 = tested on: UACC-257
TK-10 = tested on: TK-10
SF-268 = tested on: SF-268
ACHN = tested on: ACHN
MCF7 = tested on: MCF7
Hs-578T = tested on: Hs-578T
MDA-MB-231 = tested on: MDA-MB-231
RXF 393 = tested on: RXF 393
HCC 2998 = tested on: HCC 2998
HOP-92 = tested on: HOP-92
SK-MEL-2 = tested on: SK-MEL-2
T47D = tested on: T47D
HL-60 = tested on: HL-60
K562 = tested on: K562
OVCAR-3 = tested on: OVCAR-3
NCI-H460 = tested on: NCI-H460

Row | Structure (SMILES) | GI50 (A549) | GI50 (786-0) | GI50 (BT-549) | GI50 (UACC-257) | GI50 (TK-10) | GI50 (SF-268) | GI50 (ACHN) | GI50 (MCF7) | GI50 (Hs-578T) | GI50 (MDA-MB-231) | GI50 (RXF 393) | GI50 (HCC 2998) | GI50 (HOP-92) | GI50 (SK-MEL-2) | GI50 (T47D) | GI50 (HL-60) | GI50 (K562) | GI50 (OVCAR-3) | GI50 (NCI-H460)
1 | Cc1c2ccccc2c(/C=N/NC(=O)CSCC(=O)N/N=C/c2c3ccccc3c(C)c3ccccc23)c2ccccc12 | > 64.1 µM (inactive) | 20.7 µM (inactive) | 40.7 µM (inactive) | 31.6 µM (inactive) | 29 µM (inactive) | 23.8 µM (inactive) | > 47.8 µM (inactive) | 23 µM (inactive) | 46 µM (inactive) | 31.2 µM (inactive) | 16.3 µM (inactive) | 18.3 µM (inactive) | 13.2 µM (inactive) | > 78.3 µM (inactive) | > 25.6 µM (inactive) | > 68.7 µM (inactive) | 37.9 µM (inactive) | 47.5 µM (inactive) | > 57.7 µM (inactive)
2 | CC1(C)N=C(N)N=C(N)N1CCCCc1ccccc1 | 0.113 µM (active) | < 0.0305 µM (active) | 2.16 µM (inactive) | 1.63 µM (inactive) | 1.19 µM (inactive) | < 0.025 µM (active) | 1.48 µM (inactive) | 0.838 µM (active) | 3.21 µM (inactive) | > 64.9 µM (inactive) | 0.422 µM (active) | 13.3 µM (inactive) | > 62.2 µM (inactive) | > 32.9 µM (inactive) | 10.4 µM (inactive) | 0.431 µM (active) | < 0.0177 µM (active) | 0.601 µM (active) | 0.151 µM (active)
3 | COc1cc(/C=C2\N=C(c3ccccc3)N(c3nc4ccccc4s3)C2=O)cc(OC)c1OC | 29.6 µM (inactive) | 24.8 µM (inactive) | 17.5 µM (inactive) | > 100 µM (inactive) | > 100 µM (inactive) | 26.5 µM (inactive) | 20.6 µM (inactive) | 31.3 µM (inactive) | 17.3 µM (inactive) | 40.3 µM (inactive) | 18.8 µM (inactive) | 27.4 µM (inactive) | 26.2 µM (inactive) | 90.8 µM (inactive) | 28.9 µM (inactive) | 60.5 µM (inactive) | 16.5 µM (inactive) | 20 µM (inactive) | 65.5 µM (inactive)
4 | O=C1C(Cl)=C(Nc2ccc(OC(F)(F)F)cc2)C(=O)c2c(O)ccc(O)c21 | 1.22 µM (inactive) | 0.445 µM (active) | 0.855 µM (active) | 0.959 µM (active) | 1.48 µM (inactive) | 0.594 µM (active) | 1.45 µM (inactive) | 0.46 µM (active) | 0.719 µM (active) | 0.443 µM (active) | 0.519 µM (active) | 0.544 µM (active) | 0.826 µM (active) | 0.292 µM (active) | 0.417 µM (active) | 0.182 µM (active) | 0.284 µM (active) | 0.505 µM (active) | 1.71 µM (inactive)
5 | COc1ccc(/C=C2\C[C@H]3[C@@H]4CCC5=C[C@@H](N6CCCC6)CC[C@]5(C)[C@H]4CC[C@]3(C)[C@H]2O)cc1 | 2.58 µM (inactive) | 1.53 µM (inactive) | 5.85 µM (inactive) | 1.4 µM (inactive) | 2.43 µM (inactive) | 2.92 µM (inactive) | 3.29 µM (inactive) | 1.93 µM (inactive) | 2.69 µM (inactive) | 1.96 µM (inactive) | 1.52 µM (inactive) | 1.31 µM (inactive) | 2.49 µM (inactive) | 1.88 µM (inactive) | 4.56 µM (inactive) | 1.95 µM (inactive) | 2.16 µM (inactive) | 2.64 µM (inactive) | 2.49 µM (inactive)
6 | O=C(O)c1c2c(cc3c1CC1(Cc4ccccc4C1=O)C3)CCC2 (stereo not given) | 11.1 µM (inactive) | 47.5 µM (inactive) | 33 µM (inactive) | 50 µM (inactive) | > 66.7 µM (inactive) | 59.4 µM (inactive) | 57 µM (inactive) | 26.2 µM (inactive) | 34 µM (inactive) | 34.6 µM (inactive) | 25.8 µM (inactive) | 3.33 µM (inactive) | 25.5 µM (inactive) | 19 µM (inactive) | 32.5 µM (inactive) | 3.17 µM (inactive) | 5.79 µM (inactive) | 26.1 µM (inactive) | 4.62 µM (inactive)
7 | COC12OC3CC4(C)C(=CC3OC(OC(C)C1O)C2O)CCC1C4CCC2(C)C(c3ccc(=O)oc3)CCC12O (stereo not given) | 0.00119 µM (active) | 0.00134 µM (active) | 0.00143 µM (active) | 0.00283 µM (active) | 0.00122 µM (active) | 0.00105 µM (active) | 0.00181 µM (active) | 0.00178 µM (active) | < 0.001 µM (active) | 0.00281 µM (active) | 0.00234 µM (active) | 0.00338 µM (active) | 0.00535 µM (active) | 0.00205 µM (active) | 0.00227 µM (active) | 0.00139 µM (active) | 0.00237 µM (active) | 0.00155 µM (active) | 0.0014 µM (active)
8 | C=C(CC)C(=O)c1ccc(OCC(=O)O)c(Cl)c1Cl [ETHACRYNIC ACID] | > 91.8 µM (inactive) | 6.93 µM (inactive) | 4.99 µM (inactive) | 18.9 µM (inactive) | 16.1 µM (inactive) | 16.7 µM (inactive) | 26.8 µM (inactive) | 6.05 µM (inactive) | 20.5 µM (inactive) | 19.6 µM (inactive) | 18.2 µM (inactive) | 17.8 µM (inactive) | 12.2 µM (inactive) | 17.1 µM (inactive) | 9.35 µM (inactive) | 28.3 µM (inactive) | 53 µM (inactive) | 16.1 µM (inactive) | 44.3 µM (inactive)
9 | COc1ccc(OC)c(CC2CCc3nc(N)nc(N)c3C2)c1 (stereo not given) | < 0.01 µM (active) | 0.0565 µM (active) | 0.146 µM (active) | 5.78 µM (inactive) | 8.32 µM (inactive) | < 0.0192 µM (active) | < 0.0284 µM (active) | 0.509 µM (active) | 23.7 µM (inactive) | 25.4 µM (inactive) | < 0.01 µM (active) | 0.69 µM (active) | 21.9 µM (inactive) | 23.6 µM (inactive) | 20.1 µM (inactive) | 3.58 µM (inactive) | > 100 µM (inactive) | 15 µM (inactive) | < 0.01 µM (active)
10 | Cc1nn(C(=O)c2ccncc2)c2c1C(c1ccc(Cl)cc1)SC(=N)N2 (stereo not given) | > 10 µM (inactive) | > 10 µM (inactive) | > 10 µM (inactive) | > 10 µM (inactive) | > 10 µM (inactive) | > 10 µM (inactive) | > 10 µM (inactive) | > 10 µM (inactive) | > 10 µM (inactive) | > 10 µM (inactive) | > 10 µM (inactive) | > 10 µM (inactive) | > 10 µM (inactive) | > 10 µM (inactive) | > 10 µM (inactive) | > 10 µM (inactive) | > 10 µM (inactive) | > 10 µM (inactive) | > 10 µM (inactive)
11 | CC(=O)OCC12C(OC(C)=O)C[C@@H](C)C3(CC(c4ccoc4)OC3=O)C1CCC(O)C21CO1 (stereo not given in full) | > 100 µM (inactive) | > 100 µM (inactive) | > 100 µM (inactive) | > 100 µM (inactive) | > 100 µM (inactive) | > 100 µM (inactive) | > 100 µM (inactive) | > 100 µM (inactive) | > 100 µM (inactive) | > 100 µM (inactive) | > 100 µM (inactive) | > 100 µM (inactive) | > 100 µM (inactive) | > 100 µM (inactive) | 2.82 µM (inactive) | > 100 µM (inactive) | > 100 µM (inactive) | > 100 µM (inactive) | > 10 µM (inactive)
12 | N/C(S)=N/N=C/c1ccc(N)cn1 | 3.54 µM (inactive) | 2.43 µM (inactive) | 3.48 µM (inactive) | > 10 µM (inactive) | > 10 µM (inactive) | 4.29 µM (inactive) | 1.29 µM (inactive) | 3.01 µM (inactive) | > 8.36 µM (inactive) | > 6.79 µM (inactive) | 3.42 µM (inactive) | 3.65 µM (inactive) | 3.44 µM (inactive) | > 10 µM (inactive) | 6.68 µM (inactive) | 1.91 µM (inactive) | 3.1 µM (inactive) | 5.01 µM (inactive) | 3.09 µM (inactive)
13 | O=[N+]([O-])C(=C(Cl)Cl)C(Cl)=C(Cl)Cl | 6.44 µM (inactive) | 0.0895 µM (active) | 0.124 µM (active) | 0.166 µM (active) | 0.372 µM (active) | 0.701 µM (active) | 0.635 µM (active) | 0.114 µM (active) | 0.485 µM (active) | 0.505 µM (active) | 0.0391 µM (active) | 1.3 µM (inactive) | 0.279 µM (active) | 1.68 µM (inactive) | 0.037 µM (active) | < 0.0194 µM (active) | 0.0118 µM (active) | 0.706 µM (active) | 1.96 µM (inactive)
14 | CN(C)c1ccc(/C=C(\NC(=O)c2ccccc2)C(=O)NC(CC(=O)O)C(=O)O)cc1 (stereo not given) | > 100 µM (inactive) | 41.9 µM (inactive) | > 100 µM (inactive) | > 100 µM (inactive) | > 100 µM (inactive) | 61.4 µM (inactive) | > 100 µM (inactive) | > 100 µM (inactive) | 49.7 µM (inactive) | > 100 µM (inactive) | > 100 µM (inactive) | > 100 µM (inactive) | > 100 µM (inactive) | > 100 µM (inactive) | > 100 µM (inactive) | > 100 µM (inactive) | 18.2 µM (inactive) | 52.7 µM (inactive) | 65.9 µM (inactive)
15 | CCc1nc(N)nc(N)c1-c1ccc(Cl)cc1 [PYRIMETHAMINE] | 1.47 µM (inactive) | 4.59 µM (inactive) | 25.8 µM (inactive) | 12.5 µM (inactive) | 21.7 µM (inactive) | 9.77 µM (inactive) | 5.11 µM (inactive) | 11.1 µM (inactive) | > 58.2 µM (inactive) | 9.25 µM (inactive) | > 76.4 µM (inactive) | 6.25 µM (inactive) | 21.3 µM (inactive) | 38.4 µM (inactive) | 32.7 µM (inactive) | 2.38 µM (inactive) | 0.542 µM (active) | 32 µM (inactive) | 2.79 µM (inactive)
